Results taken from ChEMBL document CHEMBL2203048, “Synthesis and biological evaluation of a water-soluble derivative of the potent V-ATPase inhibitor archazolid” (Bioorg Med Chem Lett, 2012).
Activity calls are given as the source filed them. No cut-off for these calls is given here.

What was measured:
[1] = Solubility of the compound in 40:40:1 CDCl3:MeOH-d4:D2O at 1 mM by NMR analysis; assay type: physicochemical; settings: 1000 µM
[2] = Solubility in 50 mM OG at 0.5 mM by NMR analysis; assay type: physicochemical; settings: 500 µM
[3] = Solubility of the compound in 10:90 DMSO-d6:D2O solution at 0.5 mM by NMR analysis; assay type: physicochemical; settings: 500 µM
[4] = Solubility of the compound in 5:95 MeOH-d4:D2O solution at 0.5 mM by NMR analysis; assay type: physicochemical; settings: 500 µM
[5] = Solubility in 0.4 mM OG at 0.5 mM by NMR analysis; assay type: physicochemical; settings: 500 µM
[6] = Solubility in 17 mM DHPC at 1 mM by NMR analysis; assay type: physicochemical; settings: 1000 µM
[7] = Solubility of the compound in 10:90 MeOH-d4:D2O solution at 0.5 mM by NMR analysis; assay type: physicochemical; settings: 500 µM
[8] = Solubility of the compound in 5:95 CNCD3-d6:D2O solution at 1 mM by NMR analysis; assay type: physicochemical; settings: 1000 µM
[9] = Solubility of the compound in 50:50 DMSO-d6:D2O solution at 1 mM by NMR analysis; assay type: physicochemical; settings: 1000 µM
[10] = Solubility of the compound in 42:9:49 EtOH-d6:CNCD3:D2O solution at <0.5 mM by NMR analysis; assay type: physicochemical
[11] = Solubility in 4 mM LDAO at 1 mM by NMR analysis; assay type: physicochemical; settings: 1000 µM
[12] = Solubility in 2 mM LMPC at 0.5 mM by NMR analysis; assay type: physicochemical; settings: 500 µM
[13] = Solubility in 3 mM DPC at 0.5 mM by NMR analysis; assay type: physicochemical; settings: 500 µM
[14] = Solubility of the compound in 5:95 EtOH-d6:D2O solution at 1 mM by NMR analysis; assay type: physicochemical; settings: 1000 µM
[15] = Solubility of the compound in 5:95 EtOH-d6:D2O solution at 0.5 mM by NMR analysis; assay type: physicochemical; settings: 500 µM
[16] = target: V-type proton ATPase subunit C (Manduca sexta) (UniProt Q9U5N1); experiment: Binding affinity to tobacco hornworm V-ATPase c subunit in 4:4:1 CDCl3:MeOH-d4:D2O by NMR analysis
[17] = target: V-type proton ATPase subunit C (Manduca sexta) (UniProt Q9U5N1); experiment: Inhibition of tobacco hornworm V-ATPase c subunit

Chain of V-type proton ATPase subunit C (Manduca sexta) (Q9U5N1 whole entry): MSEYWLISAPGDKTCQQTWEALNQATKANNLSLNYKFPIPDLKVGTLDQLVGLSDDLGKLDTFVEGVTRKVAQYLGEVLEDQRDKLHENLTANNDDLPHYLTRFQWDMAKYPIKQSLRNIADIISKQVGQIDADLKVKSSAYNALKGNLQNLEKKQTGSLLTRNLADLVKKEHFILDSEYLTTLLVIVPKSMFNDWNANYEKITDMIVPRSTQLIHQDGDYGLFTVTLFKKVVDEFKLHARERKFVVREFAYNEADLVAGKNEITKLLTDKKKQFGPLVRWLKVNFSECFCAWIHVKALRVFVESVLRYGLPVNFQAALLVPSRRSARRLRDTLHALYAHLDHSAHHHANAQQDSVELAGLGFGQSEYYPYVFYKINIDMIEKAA

Structure (SMILES): CNC(=O)O[C@@H](CC(C)C)c1nc([C@H]2OC(=O)/C(C)=C/C/C(C)=C/[C@@H](O)[C@@H](C)\C=C(C)/C=C(C)\C=C\[C@@H](O)[C@H](C)[C@H](OC)/C(C)=C/C=C/[C@@H]2C)cs1 [ARCHAZOLID A]
- solubility [1]: soluble
- solubility [2]: Insoluble
- solubility [3]: Insoluble
- solubility [4]: Insoluble
- solubility [5]: Insoluble
- solubility [6]: Insoluble
- solubility [7]: Insoluble
- solubility [8]: Insoluble
- solubility [9]: Insoluble
- solubility [10]: Insoluble
- solubility [11]: Insoluble
- solubility [12]: Insoluble
- solubility [13]: Insoluble
- solubility [14]: Insoluble
- solubility [15]: Insoluble
- Activity [16]: inactive

Structure (SMILES): CNC(=O)O[C@@H](CC(C)C)c1nc([C@H]2OC(=O)/C(C)=C/C/C(C)=C/[C@@H](O[C@@H]3O[C@H](CO)[C@@H](O)[C@H](O)[C@H]3O)[C@@H](C)\C=C(C)/C=C(C)\C=C\[C@@H](O)[C@H](C)[C@H](OC)/C(C)=C/C=C/[C@@H]2C)cs1
- Activity [16]: inactive

Structure (SMILES): C=CCOP(=O)(O)CC(=O)O[C@@H]1/C=C/C(C)=C\C(C)=C/[C@H](C)[C@H](OC(=O)CP(=O)(O)OCC=C)/C=C(\C)C/C=C/C(=O)O[C@H](c2csc([C@H](CC(C)C)OC(=O)NC)n2)[C@@H](C)/C=C/C=C(\C)[C@@H](OC)[C@H]1C
- inhibition [17]: inactive
